Assay results as given in patent US5480885A, “Ergoline derivatives of 1-propinylamine, a process for the manufacture thereof and the use thereof for medicaments” (priority 1991, dated 1996).
Entries after “also recorded” stand apart in the source; their conditions may differ. Where two headings read alike, the source gives them in different places.

Key:
5-HT2 receptors = biological target: T1, 5-HT2 receptors (Mus musculus, UniProt P35363); assay: inhibition of the head twitch response after 5-HTP/carbidopa; type: in vivo, mice; details: ip, mice, 5-hydroxytryptophan/carbidopa, read-out: ID50, inhibition of head twitch response
T1 construct: The head twitch model in mice; from tissue; host or cells: living mice (central nervous system)
Description: The substance was injected 15 minutes prior to DL-5-HTP. The head twitch was recorded from 30 to 35 minutes after the DL-5-HTP injection (modified method according to Handley and Singh, Br. J. Pharmacol. 86, 297 (1985)).
The compound was injected 15 minutes prior to L-5-HTP (modified method according to Handley and Singh, Br. J. Pharmacol. 86, 297 (1985)).
The head twitch model in mice represents an experimental model for determining the hallucinogenic action of a compound (the method was described by Handley and Singh, Br.J.Pharmacol., 86, 297-303, 1985). It is believed that the response is conveyed via the 5-HT2 receptors.

sigma receptor [1] = assay: binding at [^3 H] DTG binding site; details: in words
sigma receptor [2] = assay: functional test, sigma receptor; details: in words
5-HT1A receptors [3] = assay: inhibition of 8-OH-DPAT-caused spontaneous tail-flick in rats; type: in vivo, rat; details: in words
pupil = assay: dilatation of the pupil in mice (Pulewka); type: in vivo; details: 5 mg/kg i.p.; in words
pithed rats = assay: vasoconstriction / diastolic pressure in pithed rats (Gillespie); type: in vivo, rat; details: vs control
[4] = test system: pentobarbital-anesthetized normotensive rats; assay: blood pressure and heart rate in pentobarbital-anesthetized normotensive rats; type: in vivo, rat; details: 450 μg/kg i.v.; for maximum reduction in carotid artery pressure / reduction in heart rate: vs initial level
5-HT2 receptor = 5-HT2 receptor (Homo sapiens, UniProt P28223); assay: biochemical; type: binding; details: for affinity for 5-HT2 receptors: in words
Text: (§1) Binding affinities of the compounds of Examples 1

uterus in rats = assay: blocking of spontaneous uterus contractions in rats; details: Rattus norvegicus; 1000 ng/ml
Description: At a concentration of 1000 ng/ml it caused a 100% blocking of spontaneous uterus contractions in rats (see Jalon).

[5] = test system: isolated rat uterus (serotonin); assay: inhibition of serotonin-induced contractions of the isolated rat uterus; details: serotonin-induced contractions (serotonin 2.47×10^-8 M where printed)
D2 receptor = D2 receptor (Homo sapiens, UniProt P14416); assay: binding, [^3 H]Raclopride; details: for Ki: D2, [^3 H]Raclopride; for affinity for D2 receptors: in words
Text: as §1

[6] = biological target: T2, isolated rabbit thoracic aorta (serotonin) (Oryctolagus cuniculus, UniProt G1SYA7); details: for mode of inhibition of serotonin constriction: in words
T2 construct: isolated rabbit thoracic aorta; from tissue; host or cells: isolated rabbit thoracic aorta

[7] = biological target: T3, 5-HT1A serotoninergic receptor (Homo sapiens, UniProt P08908); assay: binding at [^3 H] 8-OH-DPAT binding site; details: for affinity to 5-HT1A receptor: [^3 H] 8-OH-DPAT, in words
T3 sequence (P08908 1-422): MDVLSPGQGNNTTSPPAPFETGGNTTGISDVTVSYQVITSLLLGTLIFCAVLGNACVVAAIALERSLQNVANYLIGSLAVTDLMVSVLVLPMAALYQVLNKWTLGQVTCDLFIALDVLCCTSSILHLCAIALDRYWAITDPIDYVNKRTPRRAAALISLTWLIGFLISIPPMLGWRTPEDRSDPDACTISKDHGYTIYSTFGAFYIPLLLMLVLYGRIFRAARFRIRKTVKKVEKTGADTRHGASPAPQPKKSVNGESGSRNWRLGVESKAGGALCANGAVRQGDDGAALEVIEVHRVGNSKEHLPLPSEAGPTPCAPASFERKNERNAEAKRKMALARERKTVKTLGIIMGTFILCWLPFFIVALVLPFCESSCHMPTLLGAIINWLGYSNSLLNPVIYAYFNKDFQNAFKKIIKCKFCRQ
Text: as §1

5-HT1A receptors [8] = assay: spontaneous tail-flicks in rats; type: in vivo, rat; details: 0.08 to 0.63 mg/kg s.c. (Example 1); 5.0 mg/kg s.c. (Example 2); in words
[9] = biological target: T3, 5-HT1A serotoninergic receptor; assay: functional test, 5-HT1A serotoninergic receptor; details: in words
[10] = test system: isolated rabbit thoracic aorta (noradrenaline); assay: inhibition of the constrictive activity of noradrenaline on the isolated rabbit thoracic aorta
[11] = test system: isolated rabbit vena cava inferior; assay: venous constriction on the isolated rabbit vena cava inferior; details: 1×10^-7 M; in words
α1 receptors = assay: noradrenaline-induced lethality in rats; type: in vivo, rat; details: s.c.
α1 receptor = assay: binding, [^3 H]Prazosin
Text: (§2) Binding affinities of the compounds of Examples 5

[12] = test system: urethane-anestetized normotensive rats; assay: adrenaline-induced vasopressoric response in urethane-anesthetized normotensive rats; type: in vivo, rat; details: 450 μg/kg i.v.; adrenaline 10 μg/kg i.v.
Description: In urethane-anestetized normotensive rats the compound (450 μg/kg, i.v.) intensified the adrenaline (10 μg/kg, i.v.)-induced vasopressoric response.

D2 receptors [13] = biological target: T4, D2 receptors (Rattus norvegicus, UniProt P61169); assay: apomorphine-induced locomotion; type: in vivo; details: sc, -45 min., apomorphine 0.4 mg/kg s.c., rats, read-out: ID50, apomorphine-induced locomotion
T4 construct: from tissue; host or cells: living rats (central nervous system)

D1 receptor = D1 receptor (Homo sapiens, UniProt P21728); assay: binding, [^3 H]SCH23390
Text: as §2

[14] = blood pressure and heart rate in pentobarbital-anesthetized normotensive rats; type: in vivo, rat; details: rat, in vivo, iv; normotensive rats, pentobarbital-induced anesthesia; read-out: ED50, decrease of the mean arterial blood pressure
isolated rat uterus = assay: uterotonic activity (isolated rat uterus); details: in words
acetylcholine receptors = assay: oxotremorine-induced tremor in mice; type: in vivo; details: 20 to 70 mg/kg i.p.; oxotremorine 1.5 mg/kg s.c.; in words
[15] = spontaneous motor activity in mice; type: in vivo; details: mouse, in vivo, ip; mice; read-out: ID50, inhibition of spontaneous motor activity
mice = assay: spontaneous motor activity in mice; type: in vivo; details: two models (motor activity and pentobarbital anesthesia); vs haloperidol; in words
[16] = test system: isolated rabbit vena cava (noradrenaline); assay: inhibition of noradrenaline venous constriction on the isolated rabbit vena cava; details: vs noradrenaline
[17] = overall antipsychotic action and side-effect profile (summary statements); type: in vivo; details: in words
M1 muscarinic receptor [18] = assay: functional test, M1 muscarinic receptor; details: in words
D2 receptors [19] = biological target: T5, D2 receptors (Mus musculus, UniProt P61168); assay: apomorphine-induced climbing in mice; type: in vivo; details: ip, -30 min., apomorphine 1.5 mg/kg s.c., read-out: ID50, climbing behavior
T5 construct: from tissue; host or cells: living mice (central nervous system)
Description: The application of apomorphine in a dose of 1.5 mg/kg s.c. caused a characteristic climbing behavior in mice.

M1 muscarinic receptor [20] = assay: binding at [^3 H] pirenzepine binding site; details: in words
[21] = prolongation of pentobarbital-induced anesthesia in mice; details: mouse, in vivo, ip
rats = assay: catalepsy in rats; type: in vivo, rat; details: in words
Description: (§3) The s.c. application of the compounds of Example 5 (0.5 to 16 mg/kg) and of Example 8 (0.125 to 4 mg/kg), respectively, caused catalepsy in rats (the method was described by Morelli and Chiara, Europ. J. Pharmacol. 117, 179-185, 1985).

catalepsy in rats = type: in vivo, rat; details: rat, in vivo, sc; rats
Description: as §3

Sequence of D2 receptor (P14416 whole entry): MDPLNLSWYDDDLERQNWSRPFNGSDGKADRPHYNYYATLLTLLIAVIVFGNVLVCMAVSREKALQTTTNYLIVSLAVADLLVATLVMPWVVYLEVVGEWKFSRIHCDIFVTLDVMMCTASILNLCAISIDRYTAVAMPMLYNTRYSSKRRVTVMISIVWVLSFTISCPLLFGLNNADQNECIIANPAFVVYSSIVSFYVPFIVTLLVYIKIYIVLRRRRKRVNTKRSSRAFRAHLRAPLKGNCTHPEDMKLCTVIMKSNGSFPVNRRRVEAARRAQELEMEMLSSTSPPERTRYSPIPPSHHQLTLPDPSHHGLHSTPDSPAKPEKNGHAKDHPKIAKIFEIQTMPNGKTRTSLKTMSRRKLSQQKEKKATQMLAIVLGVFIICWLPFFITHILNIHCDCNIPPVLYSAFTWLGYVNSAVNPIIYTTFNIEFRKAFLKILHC
T2 sequence (G1SYA7 entry or part of it): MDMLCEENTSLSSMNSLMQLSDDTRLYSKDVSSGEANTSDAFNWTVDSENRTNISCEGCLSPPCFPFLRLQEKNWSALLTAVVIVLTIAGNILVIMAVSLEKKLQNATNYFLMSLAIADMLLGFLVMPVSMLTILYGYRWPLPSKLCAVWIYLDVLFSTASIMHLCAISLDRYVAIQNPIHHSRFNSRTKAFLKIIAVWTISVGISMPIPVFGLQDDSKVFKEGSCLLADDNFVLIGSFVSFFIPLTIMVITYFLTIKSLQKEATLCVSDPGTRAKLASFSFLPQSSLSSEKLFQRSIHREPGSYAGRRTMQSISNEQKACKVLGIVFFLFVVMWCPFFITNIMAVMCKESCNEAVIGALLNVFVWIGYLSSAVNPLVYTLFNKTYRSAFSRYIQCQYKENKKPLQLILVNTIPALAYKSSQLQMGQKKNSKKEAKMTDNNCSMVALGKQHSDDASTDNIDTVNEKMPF
Sequence of 5-HT2 receptor (P28223 whole entry): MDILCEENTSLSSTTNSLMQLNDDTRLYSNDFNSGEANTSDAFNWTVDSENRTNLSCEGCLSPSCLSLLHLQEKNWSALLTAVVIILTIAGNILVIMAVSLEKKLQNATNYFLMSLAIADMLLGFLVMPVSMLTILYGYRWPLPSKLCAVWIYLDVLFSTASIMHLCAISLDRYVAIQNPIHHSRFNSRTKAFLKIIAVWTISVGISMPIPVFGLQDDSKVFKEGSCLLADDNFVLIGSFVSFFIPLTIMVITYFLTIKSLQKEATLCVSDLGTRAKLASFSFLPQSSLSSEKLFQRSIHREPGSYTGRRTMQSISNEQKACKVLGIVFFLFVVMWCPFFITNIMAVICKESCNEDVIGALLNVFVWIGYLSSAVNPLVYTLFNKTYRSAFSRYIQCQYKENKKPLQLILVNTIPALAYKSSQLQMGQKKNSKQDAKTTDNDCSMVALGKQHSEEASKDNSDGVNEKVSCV
Sequence of D1 receptor (P21728 whole entry): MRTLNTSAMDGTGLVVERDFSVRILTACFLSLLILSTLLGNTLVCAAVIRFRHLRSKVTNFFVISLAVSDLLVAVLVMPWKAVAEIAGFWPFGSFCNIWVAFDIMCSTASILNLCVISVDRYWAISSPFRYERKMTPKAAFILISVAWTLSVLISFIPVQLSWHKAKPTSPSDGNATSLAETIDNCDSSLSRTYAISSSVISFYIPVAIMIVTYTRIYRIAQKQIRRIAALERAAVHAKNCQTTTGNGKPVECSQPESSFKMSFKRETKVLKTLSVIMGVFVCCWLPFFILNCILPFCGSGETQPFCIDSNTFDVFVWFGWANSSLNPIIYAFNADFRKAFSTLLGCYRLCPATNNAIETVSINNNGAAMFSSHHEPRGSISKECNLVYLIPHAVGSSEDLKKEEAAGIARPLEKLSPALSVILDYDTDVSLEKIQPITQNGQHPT
T5 sequence (P61168 whole entry): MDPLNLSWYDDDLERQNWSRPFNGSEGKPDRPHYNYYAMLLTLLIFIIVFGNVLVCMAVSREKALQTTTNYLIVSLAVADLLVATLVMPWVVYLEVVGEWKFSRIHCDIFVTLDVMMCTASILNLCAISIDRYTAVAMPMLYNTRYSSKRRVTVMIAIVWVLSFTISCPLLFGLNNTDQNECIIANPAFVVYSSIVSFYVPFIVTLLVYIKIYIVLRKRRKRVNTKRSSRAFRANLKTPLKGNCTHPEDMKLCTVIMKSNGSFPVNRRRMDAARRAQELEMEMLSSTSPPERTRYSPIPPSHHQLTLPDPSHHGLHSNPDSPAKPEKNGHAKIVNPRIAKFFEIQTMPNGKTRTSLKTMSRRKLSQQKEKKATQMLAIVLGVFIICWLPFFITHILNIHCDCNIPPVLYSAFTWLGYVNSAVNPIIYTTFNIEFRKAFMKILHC
T1 sequence (P35363 whole entry): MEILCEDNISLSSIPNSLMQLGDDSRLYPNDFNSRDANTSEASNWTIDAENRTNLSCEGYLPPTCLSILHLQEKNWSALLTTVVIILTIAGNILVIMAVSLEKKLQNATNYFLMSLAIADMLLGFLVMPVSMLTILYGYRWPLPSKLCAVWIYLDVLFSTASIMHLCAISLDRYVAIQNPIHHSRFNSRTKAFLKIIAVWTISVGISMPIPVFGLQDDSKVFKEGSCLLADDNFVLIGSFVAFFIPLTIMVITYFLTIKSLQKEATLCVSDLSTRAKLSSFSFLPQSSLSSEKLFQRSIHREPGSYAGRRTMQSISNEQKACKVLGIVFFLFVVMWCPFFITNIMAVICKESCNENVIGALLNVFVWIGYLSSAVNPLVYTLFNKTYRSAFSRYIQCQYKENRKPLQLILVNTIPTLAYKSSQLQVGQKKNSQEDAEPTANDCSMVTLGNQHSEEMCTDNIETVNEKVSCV
T4 sequence (P61169 whole entry): as the sequence (P61168 whole entry) above, with P29A counted along it

## C#CCNC(=O)[C@@H]1C=C2c3cccc4[nH]c(Br)c(c34)C[C@H]2N(C)C1 [Example 2, 2-Bromo-9,10-didehydro-N-(2'-propinyl)-6-methylergoline-8β-carboxamide]
5-HT2 receptors
  ED50: 8.2 mg/kg
Sigma receptor [1]
  affinity to sigma receptor: possessed affinity
Sigma receptor [2]
  functional activity at sigma receptor: indicated an antagonistic activity
5-HT1A receptors [3]; 0.63 to 5.0 mg/kg s.c., 8-OH-DPAT 2.5 mg/kg s.c.
  inhibition of 8-OH-DPAT-caused spontaneous tail-flick: strongly inhibit the spontaneous tail-flick in rats
5-HT1A receptors [3]
  effect in tail-flick inhibition model compared with buspirone: very similar to that of buspirone
pupil
  dilatation of the pupil: marked dilatation of the pupil
Pithed rats; 450 μg/kg i.p.
  mean increase of the diastolic pressure: 20%
[4]
  duration of the transient effect: up to 20 minutes
  maximum reduction in carotid artery pressure: 15%
  reduction in heart rate: 5%
5-HT2 receptor; 5-HT2, [^3 H]Ketanserin, read-out: Ki
  Ki: 90 nM
5-HT2 receptor
  affinity for 5-HT2 receptors: high affinity
Uterus in rats
  inhibition at 1 µg/mL: 100%
[5]
  IC50: 26.9 nM
D2 receptor
  Ki: 44 nM
  affinity for D2 receptors: high affinity
[6]
  mode of inhibition of serotonin constriction: competitively inhibited
[6]; vs serotonin, read-out: pA2 (converted)
  Kb: 7.41 nM
[7]; 5-HT1A, [^3 H]8-OH-DPAT
  Ki: 206 nM
[7]
  affinity to 5-HT1A receptor: somewhat lower affinity; also recorded: possessed affinity
5-HT1A receptors [8]
  spontaneous tail-flick: did not cause a spontaneous tail-flick in rats
[9]
  functional activity at 5-HT1A: did not indicate any activity

## C#CCN(C)C[C@@H]1C=C2c3cccc4[nH]cc(c34)C[C@H]2N(C)C1 [Example 8]
Sigma receptor [1]
  affinity to sigma receptor: possessed affinity
[10]; in words
  mode of inhibition of noradrenaline constriction: competitively inhibited
[10]; vs noradrenaline
  pA2: 6.39
Sigma receptor [2]
  functional activity at sigma receptor: indicated an antagonistic activity
[11]
  venous constriction: minimal venous constriction
α1 receptors
  ID50, noradrenaline-induced lethality: 3.75 mg/kg
α1 receptor; in words
  affinity for α1 receptors: lower
α1 receptor; α1, [^3 H]Prazosin
  Ki: 245 nM
pupil
  dilatation of the pupil: strong dilatation of the pupil
[12]
  effect on adrenaline-induced vasopressoric response: intensified
D2 receptors [13]
  ED50: 0.089 mg/kg
D1 receptor; D1, [^3 H]SCH23390
  Ki: 87 nM
D1 receptor; in words
  affinity for D1 receptors: lower
Pithed rats; 450 μg/kg i.v.
  mean increase in diastolic pressure: 20%
[4]; in words
  effect on carotid artery pressure: strong and sustained decrease in carotid artery pressure
[4]
  maximum reduction in carotid artery pressure: 20%
  reduction in heart rate: less than 20%
[14]
  ED50: 0.37 mg/kg
5-HT2 receptor
  Ki: 10 nM
  affinity for 5-HT2 receptors: high affinity
[5]
  IC50: 1.85 nM
D2 receptor
  Ki: 3.8 nM
  affinity for D2 receptors: high affinity
Isolated rat uterus
  uterotonic activity: no uterotonic activity
Acetylcholine receptors
  inhibition of oxotremorine-induced tremor: dose-dependent inhibition
[15]
  ED50: 8.4 mg/kg
mice
  depressant action on the level of CNS: several times lower depressant action on the level of CNS if compared with haloperidol
[16]
  pA2: 6.63
[6]
  Kb: 0.741 nM
  mode of inhibition of serotonin constriction: competitively inhibited
[17]
  antipsychotic action: strongest antipsychotic action
  side effect liability: lesser degree of probability of the development of extrapyramidal, central depressant and hypotensive side effects
M1 muscarinic receptor [18]
  functional activity at M1 muscarinic receptor: indicated an antagonistic activity
[7]
  affinity to 5-HT1A receptor: possessed affinity
D2 receptors [19]
  ED50: 0.44 mg/kg
M1 muscarinic receptor [20]
  affinity to M1 muscarinic receptor: possessed affinity
[9]
  functional activity at 5-HT1A: did not indicate any activity
[21]
  ED50: 17.1 mg/kg
rats
  cataleptic action compared with haloperidole: lesser than the action caused by the typical antipsychotic haloperidole
Catalepsy in rats
  ED50: 0.29 mg/kg
